Source: patent publication EP3906926A1, “PROLINE HYDROXYLASE INHIBITORS FOR USE IN THE SKELETAL MUSCLE REGENERATION” (Policlinico San Donato S.p.A.- Istituto di Ricovero e Cura …, priority 2020, dated 2021)

Columns and labels:
[1] = tested on: WNT7a silenced murine myoblasts (WNT7a-KO); assay: Differentiation of WNT7a-KO versus wild type myoblasts after chemical hypoxia (fusion and differentiation indexes); format: cell-based; settings: WNT7a-KO vs wild type cells, 24 hours inhibitor pre-treatment then 7 days differentiation
Experimental: (§1) After differentiation for 7 days in DM, cells were washed with phosphate saline buffer (PBS) and fixed for 15 minutes in 4% (w/v) paraformaldehyde at room temperature. For permeabilization and blocking, cells were incubated for 1 hour in the presence of PBS 0.1% (v/v) Triton X-100 (TX-100, Merck) and 5% (w/v) FBS (Merck) at room temperature. […] After incubation, cells were washed three times in PBS and incubated for 1 hour at room temperature with an anti-mouse FITC-conjugated secondary antibody (Jackson ImmunoResearch), diluted 1:200. […] Myogenesis was assessed by measuring the myotube area and the number of myonuclei per myotube using a fluorescent microscope (Olympus TH4-200) equipped with an acquisition camera. To quantify both differentiation and fusion indexes, ten fields were chosen randomly and, for each field, a minimum of one hundred myosin-positive myotubes with more than two myonuclei were measured using the ImageJ v1.49o software. The area and the number of nuclei per myotube was the mean of ten measurements averaged from three different experiments.
Therefore, WNT7a silencing was conducted by Crispr/Cas9 genome editing in C2C12 murine myoblasts and the effects on myogenesis were evaluated.
The knockout of WNT7a gene was obtained performing CRISPR/Cas9 genome editing. In particular, crRNAs and tracrRNA were obtained from TrueGuide™ Synthetic gRNA kit (ThermoFisher Scientific) and they were reconstituted and annealed following the manufacturer's instructions. […] Briefly, they were re-suspended using 1X Tris-EDTA buffer pH 8.0 to prepare a 100 µM stock solution. Then, gRNAs were generated preparing a mix composed of 10 µL crRNA, 10 µL tracrRNA, 10 µL annealing buffer, and 20 µL nuclease-free water. The mixture was incubated at 95 °C for 5 minutes followed by 10 mins on 78 °C, and then 25 °C for 5 minutes.
The transfection was performed seeding 5 x 10^5 murine myoblasts C2C12 in a 24-well plate.
The diluted Lipofectamine ™ CRISPRMAX ™ reagent in Opti-MEM I Medium was incubated 1 minute at room temperature and, then, it was added to gRNA/Opti-MEM I solution for 15 minutes. Then, the mixture was added to murine myoblasts and it was incubated at 37°C for 2 days. After the incubation, single-cell clones were isolated using a limiting dilution cloning in 96-well plates. The efficiency of WNT7a knockout (WNT7a-KO) was verified by sequencing.

PHDs = assay: ODD-luciferase reporter assay (Dual-Glo) for PHDs inhibition; settings: C2C12 myoblasts transfected with ODD-luciferase-pcDNA3; 24 hours at 10, 25, 50, 100 µM, normoxic conditions; linear regression
Experimental: The IC50 was calculated using a Dual-Glo® Luciferase Assay System kit (Promega) that allows a high-throughput analysis of mammalian cells containing the Firefly (Luciferase-pcDNA3, ODD-Luciferase-pcDNA3) and Renilla (pRL-CMV) luciferase reporters. Briefly, 5 x 10^3 cells per well were seeded in a 96-well plate, and then transfected for 24 hours with a Luciferase-pcDNA3 or an ODD-Luciferase-pcDNA3 (80 ng), containing the firefly gene reporter. A co-transfection with pRL-CMV (8 ng), containing the renilla gene reporter, was performed as an internal control, according to the ViaFect Transfection Reagent® protocol (Promega). After transfection, cells were treated with 10, 25, 50, and 100 µM IOX2 or FG-4592 (R oxadustat) for 24 hours, and then an equal volume of Dual-Glo® Luciferase Reagent was added to each well, incubated at room temperature for 30 minutes, and then analyzed with a Varioskan™ LUX Multimode Microplate Reader (ThermoFisher Scientific). Then, an equal volume of Dual-Glo® Stop & Glo® Reagent was added to each well in order to quench the luminescence from the firefly reaction and to provide the substrate for the renilla luciferase. The mixture was incubated for 30 minutes before analysis. The IC50 values were calculated by linear regression.
To this purpose, the IC50 of both compounds was determined by transiently co-transfecting C2C12 myoblasts with the ODD-luciferase-pcDNA3 plasmid, containing the Oxygen Dependent Domain (ODD) of HIF-1α, and with the pRL-CMV plasmid, as the internal control (Figure 4, panel A). Then, transfected cells were treated for 24 hours with IOX2 or FG-4592 at different concentrations (10, 25, 50, and 100 µM) under normoxic conditions, and the emitted luminescence was collated to untreated controls.
The EC50 was calculated using a Dual-Glo® Luciferase Assay System kit (Promega) that allows a high-throughput analysis of mammalian cells containing the Firefly (Luciferase-pcDNA3, ODD-Luciferase-pcDNA3) and Renilla (pRL-CMV) luciferase reporters. Briefly, 5 x 10^3 cells per well were seeded in a 96-well plate, and then transfected for 24 hours with a Luciferase-pcDNA3 or an ODD-Luciferase-pcDNA3 (80 ng), containing the firefly gene reporter. A co-transfection with pRL-CMV (8 ng), containing the renilla gene reporter, was performed as an internal control, according to the ViaFect Transfection Reagent® protocol (Promega). […] Then, an equal volume of Dual-Glo® Stop & Glo® Reagent was added to each well in order to quench the luminescence from the firefly reaction and to provide the substrate for the renilla luciferase. The mixture was incubated for 30 minutes before analysis. The EC50 values were calculated by linear regression.
The EC50 of each compound was determined by transiently co-transfecting C2C12 myoblasts with the ODD-luciferase-pcDNA3 plasmid, containing the Oxygen Dependent Domain (ODD) of HIF-1α, and with the pRL-CMV plasmid, as the internal control (Figure 12, panel A).

C2C12 murine myoblasts = assay: RealTime-Glo MT Cell Viability Assay; settings: at IC50 concentrations (50 µM IOX2, 40 µM FG-4592), 24 hours, vs untreated controls
Experimental: RealTime-Glo™ kits MT Cell Viability Assay (Promega) was used to investigate the effects of IOX2 and FG-4592 treatment on cell viability. Briefly, 5 x 10^3 C2C12 murine myoblasts were seeded in a 96 well plate and incubated for 24 hours (T0) with MT Cell Viability Substrate (1:1000 dilution) and NanoLuc® Enzyme (1:1000 dilution). Then, 50 µM IOX2 or 40 µM FG-4592 were added to the cell cultures and incubated for other 24 hours before luminescence analysis.
RealTime-Glo™ kits MT Cell Viability Assay (Promega) was used to investigate the effects of PLG treatment on cell viability. Briefly, 5 x 10^3 C2C12 murine myoblasts were seeded in a 96 well plate and incubated for 24 hours (T0) with MT Cell Viability Substrate (1:1000 dilution) and NanoLuc® Enzyme (1:1000 dilution). Then, each PLG inhibitor was added at its EC50 to the cell cultures and incubated for other 24 hours before luminescence analysis.

murine myoblasts C2C12 = assay: Skeletal muscle differentiation, MHC immunofluorescence (fusion and differentiation indexes); format: cell-based; settings: IOX2 or FG-4592 24 hours in GM, then 7 days in DM without inhibitor; vs untreated controls
Experimental: (§2) The DM was changed every day for 7 days. Cells were analyzed at 24 hours post-treatment (PT), at 3rd and 7th days of skeletal muscle differentiation.
as §1, §2

Myogenin = assay: qPCR of Myogenin during differentiation; format: cell-based, murine; settings: day 3 of differentiation, IOX2 or FG-4592 pre-treated myoblasts
Experimental: (§3) Total RNA was isolated using ReliaPrep™ RNA Miniprep Systems (Promega), and reverse transcribed to cDNA using the iScript cDNA synthesis kit (BioRad), according to the Manufacturer's instructions. Real-Time Quantitative PCR was performed on 10 ng of cDNA template, 0.2 µM primers, and GoTaq® qPCR Master Mix (Promega) in 20 µl final volume using a StepOnePlus® Real-Time PCR System (Applied Biosystem). […] RPL13 was used as the housekeeping gene. The amplification program consisted in an initial denaturation at 95°C for 3 minutes, followed by 40 cycles of 5 seconds each at 95°C and 30 seconds at 57°C; WNT7a was amplified at 53°C. Relative quantification of target genes was performed in triplicate and calculated by the equation 2^-ΔΔCt.
as §3, with “ReliaPrepTM” for “ReliaPrep™”, “2-ΔΔCt.” for “2^-ΔΔCt.”

MHC = assay: qPCR of MHC during differentiation; format: cell-based, murine; settings: day 7 of differentiation, IOX2 or FG-4592 pre-treated myoblasts
Experimental: as §3
as §3, with “ReliaPrepTM” for “ReliaPrep™”, “2-ΔΔCt.” for “2^-ΔΔCt.”

Row | SMILES | decrease in fusion index [1] | reduction in differentiation index [1] | IC50 (PHDs) | Cell viability (C2C12 murine myoblasts) | fusion index (murine myoblasts C2C12) | increase in the differentiation index (murine myoblasts C2C12) | increase of Myogenin (Myogenin) | enhancement of MHC (MHC)
1 | O=C(O)CNC(=O)c1c(O)c2ccccc2n(Cc2ccccc2)c1=O [IOX2] | 67% | no significant changes | 50 µM | no significant changes | no significant changes | 1.5 fold | 2.0 fold | 2.2 fold
2 | Cc1nc(C(=O)NCC(=O)O)c(O)c2ccc(Oc3ccccc3)cc12 [FG-4592, Roxadustat] | 63% | 15% | 40 µM | no significant changes | – | 1.3 fold | 1.4 fold | 2.3 fold
